Reference: patent US9119848B2, “Morphinan derivatives for the treatment of drug overdose” (Alkermes Pharma Ireland Limited, priority 2009, dated 2015)

Assays:
[1] = Elimination of Compound-1 in study subjects
[2] = tested on: opioid dependent, opioid experienced subject; experiment: Compound-1 after REMI challenge in an opioid dependent, opioid experienced subject; settings: 10 mg on Day 2, one opioid dependent subject

NC(=O)c1ccc2c(c1O)[C@]13CCN(CC4CC4)[C@H](C2)[C@]1(O)CCC(=O)C3 [Compound-1]
fraction of Compound-1 eliminated ([1]; by 4 days post-dose): more than 99% | half-life ([1]; human, in vivo, 20 mg): 7 h | time to severe drug withdrawal post-dosing [2]: 2 min
